Results: PubChem BioAssay AID2305 (GlaxoSmithKline (GSK), 2010)

What follows are compounds tested on P. falciparum 3D7 growth, pLDH absorbance (assay: P. falciparum 3D7 growth inhibition, dose response, strain 3D7 (AID 2305)).

Row | Structure (SMILES) | IC50 [nM]
1 | CNCCNCc1ccc(-c2ccc(-c3nc4ccc(C(F)(F)F)cc4[nH]3)s2)cc1 | 600
2 | Nc1c2c(nc3ccc(C(=O)Nc4ccccc4)cc13)CCCC2 | 710
3 | Cc1cc2cc(/C=C/C(=O)NC3CCC(CCN4CCc5ccc(C#N)cc5CC4)CC3)ccc2[nH]1 (stereo unspecified) | 880
4 | CN1CCCC(COc2cc3c(cc2Br)CCN3C(=O)Nc2ccc(-c3ccncc3)c(Cl)c2)C1 (stereo unspecified) | 230
5 | COc1ccc(C2C(C(=O)Nc3ccccc3)=C(C)Nc3c(C(=O)Nc4ccccc4)cnn32)cc1 (stereo unspecified) | 1310
6 | CCOc1cc(CC)ccc1C1CCN(CCN2CCC(NC(=O)c3ccc(-c4ccc(C#N)cc4)cc3)CC2)CC1 | 610
7 | Cc1ccnc(NC(c2cccc(Cl)c2Cl)c2ccc3cccnc3c2O)c1 (stereo unspecified) | 1000
8 | CC(C)(CNC(=O)C1CCN(CCOc2ccc(Cl)cc2)CC1)c1nc(-c2ccc(Cl)c(O)c2)c(-c2ccncc2)[nH]1 | 710
9 | Cc1cccc2[nH]c(-c3ccc(-c4ccc(CN5CCC(N)C5)cc4)s3)nc12 (stereo unspecified) | 370
10 | COc1cc(NC(=O)/C=C/c2cc(F)cc(F)c2F)cc(OCCN2CCCCC2)c1 | 150
11 | O=S(=O)(Nc1cc2c(cc1OCCCN1CCCCC1)CCNCC2)c1ccc(-c2ccc(Cl)cc2)cc1 | 1000
12 | COc1ccc2nc(C)cc(Nc3ccc(Oc4ccc(Cl)cc4)c(Cl)c3)c2c1 | 190
13 | CCN1CCN(c2cc(C)c3cc(NC(=O)c4cccc(OC)c4)ccc3n2)CC1 | 800
14 | c1ccc2c(Nc3ccc(Oc4ccc(Nc5c6ccccc6nc6ccccc56)cc4)cc3)c3ccccc3nc2c1 | 520
15 | CCCc1ccc(NC(=O)c2ccc(CN3CCCN(Cc4cccc(O)c4)CC3)cc2)cc1 | 400
16 | O=C(Nc1ccc(Cl)cc1)NC1CCN(CCCCCNC(=O)[C@@H]2C[C@H]2c2ccc(Cl)c(Cl)c2)CC1 | 580
17 | Cn1nc(-c2ccc(NC(=O)Nc3ccc4ccccc4c3)c(F)c2)c2cnc(NCCN3CCOCC3)nc21 | 1020
18 | Cc1ncc([N+](=O)[O-])n1CCOC(=O)NC(NCC1COc2ccccc2O1)C(Cl)(Cl)Cl (stereo unspecified) | 220
19 | CC(C)CN(C)c1ncnc2c1nc(-c1cncc(C#N)c1)n2CCNCc1ccccc1 | 1360
20 | C[C@@H](Oc1cc(-n2cnc3ccc(NC(=O)CCN4CCCCC4)cc32)sc1C(N)=O)c1ccccc1Cl | 990
21 | NC(N)=NN=Cc1ccc2c(ccc3ccccc32)c1 | 630
22 | O=C(Nc1cccc(-c2ccc(CN3CCNCC3)cc2)c1)c1cccc(Cl)c1 | 1250

Row | Structure (SMILES) | IC50 [nM]
23 | CC(C)c1ncc(-c2ccncc2)c(C2CCC(CNC(=O)c3cccnc3)CC2)n1 (stereo unspecified) | 780
24 | CC(C)C(=O)ONC1=NC(C)(C)N(OCCCOc2cc(Cl)c(Cl)cc2Cl)C(NOC(=O)C(C)C)=N1 | 30
25 | CN(Cc1ccc(-c2ccc(C(F)(F)F)cc2)cc1)C(=O)Cn1c(CCc2cccc(F)c2F)cc(=O)c2ccc(OCC3CCCN3C)cc21 (stereo unspecified) | 1070
26 | Cc1cc(-c2cccc(CNC3CCN(C)CC3)c2)ccc1S(=O)(=O)NCc1ccccc1 | 820
27 | COc1ccc(O)c(C(=O)c2cc(C#N)c(=O)n(-c3ccc(Oc4ccccc4)cc3)c2)c1 | 740
28 | O=C(/C=C/c1ccc(Cl)c(Cl)c1)N1CCC(CN2CCC(c3c(-c4ccccc4)[nH]c4ccccc34)CC2)CC1 | 340
29 | Cc1ccc(S(=O)(=O)N2CCN(C(=O)c3cc(-c4cccs4)[nH]n3)CC2)c(C)c1 | 870
30 | COc1ccc2ncc(F)c(CCN3C[C@H](CNCc4ccc5c(c4)OCCO5)[C@H](O)C3)c2n1 | 930
31 | Cc1ccc(CN2CCCN(Cc3cccc(NC(=O)c4ccc(Cl)c(Cl)c4)c3)CC2)cc1 | 900
32 | Cc1ccc(NC(=O)NC2CCN(CCCCCNC(=O)/C=C/c3ccc(Cl)c(Cl)c3)CC2)cc1C | 730
33 | Nc1ccc(-c2cnc3[nH]cc(-c4ccc(C(=O)O)cc4)c3c2)cn1 | 960
34 | COc1ccc(CCN(C)CCCOc2ccc(NC(=O)COc3cccc4sc5ccccc5c(=O)c34)cc2)cc1OC | 460
35 | COc1cc2nc(N3CCC(CNC(=O)c4ccc(-c5ccc(C#N)cc5)cc4)CC3)nc(N)c2cc1OC | 800
36 | COc1ccc(Nc2ccnc3cc(-c4ccccn4)ccc23)cc1OC | 30
37 | COc1ccc(S(=O)(=O)N(CC(=O)NN=C(C)c2cccs2)c2cc(C)cc(C)c2)cc1OC | 140
38 | COCCn1c(SC(C)C(=O)Nc2cc(C(F)(F)F)ccc2Cl)nc2ccccc2c1=O (stereo unspecified) | 630
39 | O=C(Nc1ccccc1)N(Cc1cccc(-c2ccc(CNC3CCCC3)cc2)c1)C1CCN(Cc2ccccc2)CC1 | 390
40 | c1cc2nc(CCCCCc3nc4ccc(C5=N[C@@H]6CCCC[C@@H]6N5)cc4[nH]3)[nH]c2cc1C1=N[C@@H]2CCCC[C@@H]2N1 | 200
41 | O=[N+]([O-])c1cccc(CNCC2CCN(Cc3ccc4ccccc4c3)CC2)c1 | 880
42 | COc1cccc(Nc2nccc(NCC(O)c3cccc(C(F)(F)F)c3)n2)c1 (stereo unspecified) | 700
43 | Oc1cccc(Nc2nc(NCC3CCCO3)c3ccccc3n2)c1 (stereo unspecified) | 810
44 | CCCNS(=O)(=O)c1ccc(NC(=O)C(C)Oc2ccc([N+](=O)[O-])cc2)cc1 (stereo unspecified) | 720

Row | Structure (SMILES) | IC50 [nM]
45 | CC1(C)CC(NCCCCCCCOc2ccc(OCc3ccccc3)cc2)CC(C)(C)N1 | 830
46 | Nc1nc2cccc3ccc4cccc1c4c32 | 920
47 | Cc1nc(-c2ccc(C#N)cc2)sc1C(=O)NCCCCN1CCC(c2ccc3c(c2OCCO)CCCC3)CC1 | 850
48 | COc1cccc(C2CCN(CCN3CCC(NC(=O)c4ccc(-c5ccc(C#N)cc5)cc4)CC3)CC2)c1 | 700
49 | O=C(NCCCCN1CCC(c2ccc(-c3ccco3)cc2)CC1)c1ccc(NC(=O)c2ccc(Cl)cc2)cc1 | 540
50 | Cc1cnc(Nc2cccc(CCN3CCOCC3)c2)nc1NC(C)C | 740
51 | Cn1cnnc1Sc1ccc(CN2CCOc3ccc(C4=CCCCC4)cc3C2)o1 | 850
52 | C=C[C@]1(C)C[C@@H](OC(=O)CNC[C@@H](O)CN2C[C@H](c3ccnc4ccc(OC)nc34)OC2=O)[C@]2(C)[C@H](C)CC[C@]3(CCC(=O)[C@H]32)[C@@H](C)[C@@H]1O | 950
53 | O=C(/C=C/c1ccc(Cl)c(Cl)c1)NCCCCCN1CCCN(C(=O)Nc2ccc(Br)cc2)CC1 | 780
54 | N#Cc1ccc(N2CCN(Cc3cccc(-c4cccc(-c5nc6ccc(C(F)(F)F)cc6[nH]5)c4)c3)CC2)nc1 | 960
55 | CO/C(=C\C=C\c1cc2cc(Cl)c(Cl)cc2[nH]1)C(=O)NC1CCN(CCOc2ccccc2)CC1 | 610
56 | COc1cccc(-c2cc(C(F)(F)F)n3ncc(C(=O)Nc4cc(C)ccc4O)c3n2)c1 | 160
57 | CN1CCN(C(=O)CN2CCC3(CCC2=O)NC(=O)c2ccccc2O3)CC1 (stereo unspecified) | 210
58 | COc1ccc(NC(=O)c2ccc(Br)c(C)c2)cc1N1CCN(CCCc2c[nH]c3ccccc23)CC1 | 380
59 | O=c1cc(NCCCNCc2ccc(C(F)(F)F)s2)[nH]c2ccccc12 | 200
60 | NC1=NC(c2ccccc2)N(c2ccc(Cl)c(Cl)c2)C(N)=N1 (stereo unspecified) | 10
61 | c1ccc(-c2cc(NCCCCNc3cc(-c4ccccc4)nc4ccccc34)c3ccccc3n2)cc1 | 130
62 | CCOc1c(N2CCN(CCCCNC(=O)c3ccc(NC(=O)c4ccc(Cl)cc4)cc3)CC2)ccc2ccccc12 | 680
63 | COc1ccc2nccc([C@@H](O)CN3CCC(NCc4cc5oc(=O)[nH]c5cc4Cl)CC3)c2c1 | 380
64 | CCn1c(-c2nonc2N)nc2c(-c3ccccc3)ncc(OCCCNCCCN3CCOCC3)c21 | 670
65 | O=C(Nc1ccc(SC(F)(F)F)cc1)Nc1ccnc2ccccc12 | 750
66 | c1cc(OCCN2CCCC2)ccc1CNC1CCN(CC2CCCCC2)CC1 | 840
